Measured values taken from patent US20170304460A1, “METHOD OF CONJUGATING A POLYPEPTIDE” (MedImmune, LLC, priority 2014, published 2017).
Where two headings read alike, the source gives them in different places.

Columns and labels:
T289C mAb = experiment: Conjugation kinetics of x-maleimide-PEG-biotins with T289C mAb; assay type: physicochemical; settings: for Second order rate constant (k2): conjugation to T289C mAb
Protocol: x-Maleimide-PEG-biotins were conjugated to mAb (comprising a T289C mutation of the Fc) in several steps. […] Reduced mAb was transferred to a slide-a-lizer dialysis cassette (10K MWCO) and dialyzed against PBS, 1 mM EDTA, pH 7.2-7.8, 4° C. for 24 hr with several buffer changes. Reduced mAb was oxidized to reform internal disulfides by addition of dehydroascorbic acid (21 μL of 50 mM stock in DMSO, 1.1 μmol, 20 eq) followed by gentle mixing for 4 hr at room temperature. Oxidized mAb solution was adjusted to the desired pH by addition of 1M sodium phosphate (monobasic for pH 5.5, dibasic for pH 8.6, or a stock adjusted to pH 7.4) to a final phosphate concentration of 100 mM and mAb concentration of 1.3 mg/mL. Next, 1.15 mL of mAb solution (1.5 mg, 10 nmol, 1 eq) was aliquoted into a vial followed by addition of x-maleimide-PEG-biotin stock solution (2 μL of a 10 mM stock solution in DMAc, 20 nmol, 2 eq). The reaction mixture was briefly vortexed and further incubated for the desired amount of time followed by addition of N-acetly cysteine (10 μL of a 100 mM solution in water, 1 μmol, 100 eq) and further incubation for 15 minutes to quench unreacted maleimide. All conjugation reactions were performed at room temperature (22° C.) under ambient atmosphere. Note that 2 eq x-maleimide-PEG-biotin relative to mAb=1 eq x-maleimide-PEG-biotin relative to free cysteine contained in the mAb. This general procedure was modified as needed to achieve desired reaction stoichiometry (i.e. different maleimide:mAb feeds).
ADC samples were analyzed using an Agilent 6520B Q-TOF mass spectrometer equipped with a RP-HPLC column (Agilent Poroshell 300SB-C3; 5 um, 2.1 mm×75 mm; Part#660750-909). High-performance liquid chromatography (HPLC) parameters were as follows: flow rate, 0.4 ml/min; mobile phase A was 0.1% (v/v) formic acid in HPLC-grade H2O, and mobile phase B was 0.1% (v/v) formic acid in acetonitrile. The column was equilibrated in 90% A/10% B, which was also used to desalt the ADC samples, followed by elution in 40% A/60% B. Mass spec data were collected for 100-3000 m/z, positive polarity, a gas temperature of 350° C., a nebulizer pressure of 48 lb/in^2, and a capillary voltage of 5,000 V. Data were analyzed using vendor-supplied (Agilent v.B.04.00) MassHunter Qualitative Analysis software and peak intensities from deconvoluted spectra were used to derive the relative proportion of reactants and products; and reaction kinetics.
Half-lives were calculated from the derived rate constants using Equation 4 for pseudo-first order reactions (hydrolysis and deconjugation) and Equation 5 for second-order reactions (conjugation): […]
Conjugation data were analyzed in units of molar concentration to determine kinetic constants. Second order rate constants were determined from the slopes of curves generated from plotting 1/[SH] versus time and linear regression analysis.

[1] = Maleimide hydrolysis kinetics (pre-incubation in buffer, then reaction with T289C mAb); assay type: physicochemical; settings: for half-life at 1 mM: sodium phosphate buffer, read-out: Hydrolysis T1/2 (maleimide) (converted)
Protocol: x-Maleimide-PEG-biotins were pre-incubated in buffer solutions of different pH to assess their stability and thiol conjugation efficiency over time. This assay indirectly monitors maleimide hydrolysis because hydrolyzed maleimides are not reactive towards thiols. Antibody bearing the T289C FC mutation was reduced and oxidized as described above and adjusted to 1.5 mg/mL in PBS containing 50 mM sodium phosphate pH 7.4. Maleimide solutions were prepared in buffer (100 mM sodium phosphate pH 5.5, 7.4, 8.6) by combining 20 μL x-maleimide-PEG-biotin solution (10 mM solution in DMAc) with 180 μL buffer at the desired pH (final x-maleimide-PEG-biotin concentration=1 mM) and incubated at 22° C. for determined time intervals prior to reaction with mAb. For conjugation reactions 267 μL mAb (1.5 mg/mL, 2.7 nmol, 1 eq) was combined with 5.3 μL buffer-incubated x-maleimide-PEG-biotin solution (5.4 nmol, 2 eq). […] The conjugation reaction proceeded at 22° C. for 1.5 hr at pH 7.4. After reaction samples were reduced with DTT at room temperature for 5 min and analyzed by mass spectrometry. Percent conjugation was calculated using equation 1.
Maleimide hydrolysis data were also analyzed in units of molar concentration to determine kinetic constants. Pseudo 1st order rate constants were determined from the slopes of curves generated from plotting ln [maleimide] versus time and linear regression analysis.

[2] = pH 7.0; cited from earlier work
[3] = pH 7.0; cited from earlier work; remark: listed apart in the source
[4] = cited from earlier work
[5] = BME challenge assay: sensitivity of PEG-biotin T289C mAb conjugates to thiol exchange in buffer containing thiols; assay type: physicochemical; settings: pH 7.2, 37° C.
Protocol: Biotin-mAb conjugates were incubated in aqueous buffer containing β-mercaptoethanol (BME) to challenge the thiosuccinimide linkage against deconjugation. x-Maleimide-PEG-biotins were conjugated to mAb containing the T289C mutation as described above with minor modification. Conjugation reactions were performed at 1 equivalent x-PEG-maleimide:thiol for 15 min at 22° C. followed immediately by dilution to 0.2 mg/mL (1.33 μM mAb) with 1×PBS pH 7.2 containing 0.5 mM EDTA. The N-acetyl cysteine quenching step was omitted. For BME-containing samples, BME was added to a final concentration of 1% v/v (143 mM). Samples were further incubated at 37° C. under ambient atmosphere without stirring. Aliquots were removed at various time points, sterile filtered, reduced with DTT and then analyzed by LC/MS. Percent conjugated mAb and thiosuccinimide hydrolysis were determined from peak heights of mass spectra using Equation 1 and Equation 2, respectively. Deconjugated mAb and thiosuccinimide hydrolysis data were plotted as ln [concentration] vs. time (s) to obtain the pseudo-first order rate constants from the slope of the bestfit line.

[6] = Stability of mAb-biotin conjugates in the presence of free thiol (BME) after mild hydrolysis; assay type: physicochemical; settings: pH 7.2, 37° C.
Protocol: Biotin-mAb conjugates were incubated in aqueous buffer containing β-mercaptoethanol (BME) to challenge the thiosuccinimide linkage against deconjugation. In this experiment, thiosuccinimide conjugates were subjected to a brief incubation at mildly basic conditions to facilitate thiosuccinimide hydrolysis before the stability challenge. x-Maleimide-PEG-biotins were conjugated to mAb containing the T289C mutation as described above with minor modification. Conjugation reactions were performed at 1 equivalent x-PEG-maleimide:thiol for 15 min at 22° C. followed quenching with N-acetyl cysteine (100 eq rel. to mAb) and further reaction for 5 minutes. Reaction mixtures were adjusted to pH 8.6 by addition of 10% v/v sodium phosphate (1M, dibasic) and then incubated at 37° C. for 1 hr. Reactions were then dialyzed against PBS (pH 7.2) containing 0.5 mM EDTA for 24 hr at 4° C. After dialysis, mAb concentrations were confirmed by A280 measurement (NanoDrop) and samples were diluted to 0.2 mg/mL (1.33 μM mAb) with 1×PBS pH 7.2 containing 0.5 mM EDTA. For BME-containing samples, BME was added to a final concentration of 1% v/v (143 mM). […] Aliquots were removed at various time points, sterile filtered, reduced with DTT and then analyzed by LC/MS. Percent conjugated mAb and thiosuccinimide hydrolysis was determined from peak heights of mass spectra using Equation 1 and Equation 2, respectively. […]

[7] = Reactivity of mAb-BCN conjugate with AC4GlcNAz after storage; assay type: physicochemical
Protocol: N-phenyl-maleimide-PEG-BCN-mAb conjugate (100 μL of 1.3, mg/mL solution in PBS with 0.5 mM EDTA, 0.87 nmol) was combined with AC4GlcNAz (1 μL of 500 mM stock in DMSO, 500 nmol). The reaction solution was incubated at room temperature without stirring for 1 hr at 22° C. For long-term reactivity studies, mAb-BCN conjugate was stored at 4° C. in PBS with 0.5 mM EDTA, pH 7.2 and aliquots were removed and reacted with AC4GlcNAz as described above. Conjugates were analyzed by reduced glycosylated mass spectrometry and conjugation efficiency was determined using equation 1.

[8] = Thiosuccinimide hydrolysis kinetics for PEG-BCN conjugates; assay type: physicochemical; settings: mAb-PEG-BCN conjugates at T289C, pH 7.2, 22° C.
Protocol: x-Maleimide-PEG-BCN-mAb conjugates were incubated in buffer solutions and monitored by LC/MS over time to observe thiosuccinimide hydrolysis. Conjugated T289C mAbs were diluted to 0.22 mg/mL with 1×PBS containing 0.5 mM EDTA, pH 7.2 and then dithiothreitol was added (0.5 M stock in water) to achieve a final concentration of 42 mM. Samples were placed into the LC/MS autosampler at 22° C. and injected periodically. Thiosuccinimide hydrolysis was confirmed by addition of 18 amu to the mAb conjugate peak in the mass spectrum. Semi-quantitative analysis of hydrolysis was performed using peak intensities in deconvoluted mass spectra and equation 3, which includes background subtraction using the T=0 measurement. Data was then converted into loss of thiosuccinimide (M) over time and plotted as ln [thiosuccinimide] vs seconds. The slope of the best fit line yielded the pseudo first-order rate constant for thiosuccinimide hydrolysis.

Molecule | Second order rate constant (k2) (T289C mAb; pH 5.5, 22° C.) | Second order rate constant (k2) (T289C mAb; pH 7.4, 22° C.) | Second order rate constant (k2) (T289C mAb; pH 8.6, 22° C.) | Psuedo first order rate constant (kobs), maleimide hydrolysis ([1]; pH 7.4, 22° C.) | Psuedo first order rate constant (kobs), maleimide hydrolysis ([1]; pH 8.6, 22° C.) | half-life at 1 mM ([1]; pH 7.4, 22° C.) | half-life at 1 mM ([1]; pH 8.6, 22° C.) | further results
2-fluoro-5-maleimidophenyl-PEG7-biotin [F-phenyl maleimide-PEG-biotin] |  |  |  |  |  |  |  | thiol conjugation is complete in (T289C mAb; pH 8.6): 15 s
O=C(CCCCC1SCC2NC(=O)NC21)NCCOCCOCCOCCOCCOCCOCCOCCNC(=O)CCN1C(=O)C=CC1=O (centres unmarked) [Alkyl maleimide-PEG-biotin, maleimidoproprionyl-PEG7-biotin, reference compound] | 13 M⁻¹ s⁻¹ | 500 M⁻¹ s⁻¹ | ~28000 M⁻¹ s⁻¹ | 2.3e-05 s⁻¹ | 0.0002 s⁻¹ | 7.7 h | 1 h | 
O=C(CCCCC1SCC2NC(=O)NC21)NCCOCCOCCOCCOCCOCCOCCOCCNC(=O)c1cc(N2C(=O)C=CC2=O)ccc1F (centres unmarked) [F-phenyl maleimide-PEG-biotin, 2-fluoro-5-maleimidophenyl-PEG7-biotin] | 55.4 M⁻¹ s⁻¹ | 4500 M⁻¹ s⁻¹ | ~39000 M⁻¹ s⁻¹ | 0.00017 s⁻¹ | 0.0019 s⁻¹ | 1.1 h | 0.1 h | 
CCN1C(=O)C=CC1=O [N-ethyl maleimide] |  |  |  |  |  |  |  | k2, reaction with cysteine [2]: 1620 M⁻¹ s⁻¹; k2, reaction with β-mercaptoethanol [3]: 710 M⁻¹ s⁻¹
O=C1C=CC(=O)N1c1ccccc1 [N-phenyl maleimide] |  |  |  |  |  |  |  | kobs, hydrolysis ([4]; pH 7.6, 25° C.): 7e-05 s⁻¹
O=C(CCCCC1SCC2NC(=O)NC21)NCCOCCOCCOCCOCCOCCOCCOCCNC(=O)Cc1ccc(N2C(=O)C=CC2=O)cc1 (centres unmarked) [Phenyl maleimide-PEG-biotin, maleimidophenylacetyl-PEG7-biotin] | 23.8 M⁻¹ s⁻¹ | 1300 M⁻¹ s⁻¹ | ~34000 M⁻¹ s⁻¹ | 8.5e-05 s⁻¹ | 0.00076 s⁻¹ | 2.3 h | 0.3 h | 
O=C1C=CC(=O)N1 [maleimide] |  |  |  |  |  |  |  | kobs, hydrolysis ([4]; pH 8.38, 30° C.): 0.000151 s⁻¹
N-fluorophenyl thiosuccinimide |  |  |  |  |  |  |  | Max deconjugation + BME ([5]; 1% v/v BME): 10%; Max deconjugation − BME ([5]; without BME): None; Max deconjugation + BME ([6]; 1% v/v BME): None; Max deconjugation − BME ([6]; without BME): None
Phenyl thiosuccinimide |  |  |  |  |  |  |  | Azide conjugation (BCN reactivity) ([7]; 1 day storage at 4° C.): quantitative; Azide conjugation (BCN reactivity) ([7]; 4 days storage at 4° C.): quantitative; Azide conjugation (BCN reactivity) ([7]; 7 days storage at 4° C.): quantitative; Azide conjugation (BCN reactivity) ([7]; 10 days storage at 4° C.): quantitative; Azide conjugation (BCN reactivity) ([7]; 15 days storage at 4° C.): quantitative; Azide conjugation (BCN reactivity) ([7]; 21 days storage at 4° C.): quantitative; time without loss of BCN reactivity ([7]; after conjugation and storage at 4° C.): > 21 days; Psuedo first order rate constant (kobs), thiosuccinimide hydrolysis [8]: 1.9e-05 s⁻¹
